Data taken from patent US12570643B2, “3-aryloxy-3-five-membered heteroaryl propylamine compound, and crystal form and use thereof” (Shanghai Leado Pharmatech Co. Ltd., priority 2019, dated 2026).

Columns and labels:
[1] = biological target: T1, TRPA1 (Mus musculus, UniProt Q8BLA8); test: TRPA1 inhibitory activity, IonWorks Barracuda (IWB) automatic patch clamp detection; format: cell-based; conditions: automatic patch clamp
T1 construct: expressed in transfected cells; host or cells: HEK293 cells stably expressing TRPA1
Experimental: In this example, the compounds prepared in some examples of the present invention (shown in Table 1) were tested for their inhibitory activity on the transient receptor potential channel protein TRPA1. Wherein, compound of formula A (WO2010075353) was used as positive control: […]
Test method by using IonWorks Barracuda (IWB) automatic patch clamp detection: HEK293 cells stably expressing TRPA1 were placed in a 37° C., 5% CO2 incubator and incubated with DMEM medium containing 15 μg/mL Blasticidin S HCl, 200 μg/mL Hygromycin B and 10% FBS serum in a T175 culture flask. When the cell density grew to […], the culture medium was removed, the cells were washed with calcium and magnesium free phosphate buffered saline (PBS), and 3 mL of Trypsin was added and digested for 2 minutes, and 7 mL of culture medium was added to terminate the digestion. […]
Data recording and current amplitude measurement and export were completed by IWB Software (version 2.5.3, Molecular Devices Corporation, Union City, CA). The statistics of the well with a sealing impedance lower than 20 M Ω were not recorded. The original current data was corrected by software, the TRPA1 current amplitude was measured in +100 mV. […] The dose-effect curve and IC50 of compounds were fitted and calculated by GraphPad Prism 5.02 (GraphPad Software, San Diego, CA).

[2] = system: postoperative pain model in rat; test: Postoperative pain model in rat, mechanical hyperalgesia test; format: in vivo; conditions: 10 mg/kg intramuscular injection
Experimental: Injection of compound I-1: 36.13 mg of compound I-1 prepared in Example 2 was weighed and added into 3.140 mL of normal saline, and well mixed by vortex;
The solvent of the test compound I-1 was normal saline, the administration dose was 10 mg/kg, and the administration method was intramuscular injection. 36.13 mg of the compound I-1 was weighed and added into 3.140 mL normal saline, and well mixed by vortex. The reference compound used in the experiment was bupivacaine injection, purchased from Shanghai Zhaohui Pharmaceutical Co., Ltd., in a dose of 10 mg/kg via intramuscular injection.
Aseptic operation was performed during surgery, surgical instruments (scissors, forceps, scalpel, surgical cotton, suture thread) were disinfected before the operation. The rats were anesthetized with sodium pentobarbital (50 mg/kg, intraperitoneal injection), and the toes of the rats were squeezed to confirm that the animals were completely anesthetized before the surgery. Ophthalmic ointment was applied to the animal's eyes to prevent the animal's cornea from drying out. Iodophor and 70% ethanol were used to disinfect the skin of the surgery area on the sole of the left hind foot three times, and the surgery was started after the skin was dried. Starting at 0.5 cm from the heel, a 1 cm long incision was made longitudinally toward the toe. After cutting the skin, the flexor digitorum brevis was lifted to make longitudinal blunt injury. After pressing to stop the bleeding, the wound was sutured. The surgical instruments were cleaned and sterilized with hot bead sterilizer. After the surgery, the animals were placed on an electric blanket and injected subcutaneously with 5 mL normal saline to prevent dehydration. When the animal was completely awake (free to move), put the animal back into the cage. […]
The rat was placed alone in a plexiglass box with a grid on the bottom of the box to ensure that the rat's feet can be tested. […] During the test, the animal's rapid foot shrinkage was recorded as a pain response. The animal's foot shrinkage when the test fiber left the animal's skin was also recorded as a pain response. If the animal moved or walked, it would not be recorded as the pain response, the test should be repeated. […] The mechanical hyperalgesia test results are recorded in the table of FIG. 10, in which pain response is indicated with an “x” and no pain response is indicated with an “o.”
Mechanical hyperalgesia was expressed as the paw withdrawal threshold (PWT) in the behavioral test of rats, which was calculated according to the following equation: 50% response threshold (g)=(10(Xf+k))/10,000 • Xf=the final test fiber value used in the test • K=table value (Chaplan et al. 1994, page 62) • □=Average difference 5. […]

T1 sequence (Q8BLA8 whole entry): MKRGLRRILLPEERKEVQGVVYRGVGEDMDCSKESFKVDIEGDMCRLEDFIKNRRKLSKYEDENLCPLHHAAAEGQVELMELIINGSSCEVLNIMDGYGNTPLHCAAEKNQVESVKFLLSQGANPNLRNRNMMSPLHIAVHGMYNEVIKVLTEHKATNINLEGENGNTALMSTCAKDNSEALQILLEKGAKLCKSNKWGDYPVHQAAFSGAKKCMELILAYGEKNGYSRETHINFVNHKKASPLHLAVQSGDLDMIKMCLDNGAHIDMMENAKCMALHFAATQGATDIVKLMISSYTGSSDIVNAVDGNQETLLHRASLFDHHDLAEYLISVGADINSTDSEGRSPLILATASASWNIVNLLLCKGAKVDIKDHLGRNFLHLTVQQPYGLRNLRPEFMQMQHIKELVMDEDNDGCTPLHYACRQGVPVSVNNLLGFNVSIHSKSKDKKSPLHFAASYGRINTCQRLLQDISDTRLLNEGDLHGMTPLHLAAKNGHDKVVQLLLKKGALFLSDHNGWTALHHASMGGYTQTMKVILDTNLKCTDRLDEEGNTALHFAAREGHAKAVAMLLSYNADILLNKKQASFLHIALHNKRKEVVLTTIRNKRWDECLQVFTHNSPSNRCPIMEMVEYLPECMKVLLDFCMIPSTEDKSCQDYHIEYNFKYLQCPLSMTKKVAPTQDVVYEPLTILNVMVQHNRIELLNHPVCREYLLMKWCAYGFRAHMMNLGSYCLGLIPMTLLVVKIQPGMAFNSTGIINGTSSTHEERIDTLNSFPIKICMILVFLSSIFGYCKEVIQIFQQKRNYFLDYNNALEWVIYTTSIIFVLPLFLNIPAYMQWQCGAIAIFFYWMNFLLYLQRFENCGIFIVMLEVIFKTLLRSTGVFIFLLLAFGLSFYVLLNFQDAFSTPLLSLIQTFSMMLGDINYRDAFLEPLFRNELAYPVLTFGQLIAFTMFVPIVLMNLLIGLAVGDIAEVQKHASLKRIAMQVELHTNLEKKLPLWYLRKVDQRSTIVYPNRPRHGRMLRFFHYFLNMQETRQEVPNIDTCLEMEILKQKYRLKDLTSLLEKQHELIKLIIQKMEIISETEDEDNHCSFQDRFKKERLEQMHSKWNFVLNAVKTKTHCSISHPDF

activity ratio (IC50 of compound C2/IC50 of compound I-1) [1]: about 6.3
SMILES: CNCC[C@@H](Oc1cccc2ccoc12)c1cccs1 [Compound I-1, (R)-3-(benzofuran-7-yloxy)-N-methyl-3-(thiophen-2-yl)propan-1-amine]
PWT ([2]; 1 hour after administration, Normal Saline 3.561): 5.885 g
PWT (g) ([2]; 2 hours after administration, Normal Saline 3.382): 5.135. g
